This note sets out measurements from publication PMC5853558, “De novo identification of lipid II binding lipopeptides with antibacterial activity against vancomycin-resistant bacteria” (Chemical Science, 2017).

Assay [1] deals with M. luteus (NCTC2665). Put plainly: microbe, parasite or virus in culture. Format: cell-based, Micrococcus luteus. Summed up: (§1)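 TSB microdilution MIC. Top final peptide 512 µg/ml, lipopeptides 64 µg/ml, DMSO 2%; cells grown to OD600 0.5, suspension at 1 x 10^6 CFU/ml added 1:1; shaken 250 rpm at strain's optimal temperature; DMSO-only control per strain.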
In assay [2] the test system is B. subtilis (168). Put plainly: microbe, parasite or virus in culture. Format: cell-based. The gist of the method: as §1
In assay [3] the test system is S. epidermidis (1587). Nature of the assay: microbe, parasite or virus in culture. Format: cell-based. The gist of the method: as §1
Assay [4] deals with S. pyogenes (5448). Put plainly: microbe, parasite or virus in culture. Format: cell-based. The gist of the method:
as §1

The subject of assay [5] is C55-PP. Nature of the assay: Antagonization assay with C55-PP. Format: cell-based, M. luteus. Also on record: key to Result with antagonist C55-PP: +: antagonization of antibiotic activity; -: no antagonization of antibiotic activity. Conditions: for Result with antagonist C55-PP: Supplemental table S10, peptide at 4x MIC, M. luteus, 16 h at 30°C, growth observed visually; for Effect of adding C55-PP on antibiotic activity: antagonization experiment using C55-PP. Here is the method: (§2) To assess the role of lipid II in the mode of action of the lipopeptides a lipid II antagonization assay was employed.[18],[33] This assay was performed by premixing P8-D-C10 or the optimized P8-D-(S6R, R15A)-C10 with an excess of lipid II prior to addition of a live culture of M. luteus. […] To probe the stereochemical aspects of lipid II recognition by the optimized P8-D-(S6R, R15A)-C10 lipopeptide we also prepared and tested the corresponding enantiomeric L-peptide species P8-L-(S6R, R15A)-C10. […] Given that lipid II is a chiral biomolecule we had expected the enantiomeric lipopeptides to have different activities based on the assumption that they would interact differently with lipid II. To further investigate this phenomenon we employed the same lipid II antagonization assay described above. […] To explain this observation we hypothesize that the two enantiomeric peptides interact primarily with the pyrophosphate moiety of lipid II and are therefore less influenced by the chiral elements present elsewhere in the lipid II molecule. The pyrophosphate group is known to be a binding site for many natural occurring lipid II binding peptides.[15],[16] […] To test the hypothesis that both the P8-D-(S6R, R15A)-C10 and P8-L-(S6R, R15A)-C10 lipopeptides interact with the pyrophosphate moiety we performed an additional antagonizaiton experiment using C55-PP.
(§3) Section 4 Biological and biochemical experiments
(§4) 4.1 Minimum inhibitory concentration assay
(§5) MIC values were determined by using the broth microdilution method. Peptides were dissolved first in DMSO and diluted with broth so that the final peptide concentration was 1024 µg/ml and the DMSO concentration was 4%. Peptide serial dilutions were made in TSB in a polypropylene 96-wells plate using 50 µl volumes. An overnight culture of the organism of interest was diluted to and OD600 of 0.01 and grown until they reach 0.5. The culture was then diluted to 1 x 10^6 CFU/ml and 50 µl of this suspension was added to each well. The highest concentrations were then 512 µg/ml peptide and 2% DMSO. The plates were incubated at the preferred growth temperature of the organism that was used and 250 rpm. […] When […]
(§6) determining the MICs of the lipidated peptides, the lipopeptides were first dissolved in DMSO and diluted with TSB so that the peptide concentration was 128 µg/ml and the DMSO concentration was 4%. After inoculation the highest peptide concentration evaluated was 64 µg/ml and the DMSO concentration was 2%. A DMSO control was tested for each strain to ensure the DMSO did not affect the growth of the particular strain. […]
(§7) 4.4 Antagonization assays
(§8) Stock solutions of each peptide antibiotic were prepared so that their final concentration in the assay would be 4x MIC. Peptides were transferred to a 96 wells plate and lipid II or C15-P (farnesyl-phosphate) was added at 4 molar equivalents in a final volume of 50 µl. Each well received 50 µl of bacterial suspension (M. luteus) at 1 x 10^6 CFU/ml and the plates were incubated for 16 h at 250 rpm and 30°C. Growth was observed visually (see supplemental table S10 for results).

Assay [6] relates to lipid II. Put plainly: Lipid II antagonization assay. Also on record: key to Result with antagonist Lipid II: +: antagonization of antibiotic activity; -: no antagonization of antibiotic activity. Format: cell-based, M. luteus. As to conditions: for Result with antagonist Lipid II: Supplemental table S10, peptide at 4x MIC, antagonist at 4 molar equivalents, M. luteus 1 x 10^6 CFU/ml, 16 h at 30°C, growth observed visually; for Effect of pre-incubation with lipid II on antibacterial activity: premixed with an excess of lipid II before addition of a live culture of M. luteus. Here is the method:
as §2, §3, §4, §5, §6, §7, §8

[7] abbreviates: Supplemental table S9, MIC values of Table 2 expressed in µM.
The mark [8] stands for this setting: Table 2, broth microdilution in TSB, 16 h, read visually, highest tested 64 µg/ml, 2% DMSO.
[9] abbreviates: Table 2, broth microdilution in TSB, 16 h, read visually, highest tested 64 µg/ml.

≈ marks a conversion by molar mass, not a printed value. *1 amine or outer side, *2 acyl side, *3 side chain or, on linkers, in order; H or OH if unused. Where a SMILES comes first, the peptide text is derived from it. Bridges are numbered along the chain shown (N, C = ends). [ ]: non-standard residue; d: D form. The star is where a group is joined. TBMB = c1c(C[*:1])cc(C[*:3])cc1C[*:2]; NHDecyl = CCCCCCCCCCN*

For `CCCCCCCCCCNC(=O)CNC(=O)[C@H]1CSCc2cc3cc(c2)CSC[C@@H](NC(=O)[C@@H](CC(C)C)NC(=O)[C@@H](CC(C)C)NC(=O)[C@@H](CCCNC(=N)N)NC(=O)[C@@H](CCC(N)=O)NC(=O)[C@@H](CC(C)C)NC(=O)[C@@H](CC(C)C)NC(=O)[C@H](NC(=O)[C@@H](C)N)CSC3)C(=O)N2CCC[C@@H]2C(=O)N[C@H](Cc2ccc(O)cc2)C(=O)N[C@H](CO)C(=O)N[C@H]([C@H](C)O)C(=O)N[C@H](Cc2c[nH]cn2)C(=O)N[C@H](C)C(=O)N1` [P8-D-(S6R, R15A)-C10] (H-[dA][dC][dL][dL][dQ][dR][dL][dL][dC][dP][dY][dS][dT][dH][dA][dC]G-NHDecyl; linker 2-9-16 via TBMB; N-terminus assumed), the figures for the “MIC M. luteus (NCTC2665)” value in assay [1] (setting [7]) and in assay [1] (setting [8]) were 3.8 µM (≈ 7.99 µg/mL) and 4 μg mL^–1, respectively. The entries for the “MIC B. subtilis (168)” value in assay [2] (setting [7]) and in assay [2] (setting [9]) were 7.6 µM (≈ 16 µg/mL) and 8 μg mL^–1, respectively. For the same molecule, the “MIC S. epidermidis (1587)” value in assay [3] (setting [7]) is recorded as 60.9 µM (≈ 128 µg/mL); in assay [3] (setting [9]), 64 μg mL^–1. For the same molecule, the “MIC S. pyogenes (5448)” value in assay [4] (setting [9]) is recorded as 8–16 μg mL^–1. Besides, in assay [5], the “Result with antagonist C55-PP” value is “+”. The “Effect of adding C55-PP on antibiotic activity” value in assay [5] is on record as “complete loss of antibiotic activity”. Also, in assay [6], the “Result with antagonist Lipid II” value was “+”. Besides, the “Effect of pre-incubation with lipid II on antibacterial activity” value in assay [6] was “antagonization of antibacterial activity”.

Consider `CCCCCCCCCCNC(=O)CNC(=O)[C@@H]1CSCc2cc3cc(c2)CSC[C@H](NC(=O)[C@H](CC(C)C)NC(=O)[C@H](CC(C)C)NC(=O)[C@H](CCCNC(=N)N)NC(=O)[C@H](CCC(N)=O)NC(=O)[C@H](CC(C)C)NC(=O)[C@H](CC(C)C)NC(=O)[C@@H](NC(=O)[C@H](C)N)CSC3)C(=O)N2CCC[C@H]2C(=O)N[C@@H](Cc2ccc(O)cc2)C(=O)N[C@@H](CO)C(=O)N[C@@H]([C@@H](C)O)C(=O)N[C@@H](Cc2c[nH]cn2)C(=O)N[C@@H](C)C(=O)N1` [P8-L-(S6R, R15A)-C10] (H-ACLLQRLLCPYSTHACG-NHDecyl; linker 2-9-16 via TBMB; N-terminus assumed), for which the “MIC M. luteus (NCTC2665)” value was found to be 3.8 µM (≈ 7.99 µg/mL) in assay [1] (setting [7]) and 4 μg mL^–1 in assay [1] (setting [8]). In addition, the “MIC B. subtilis (168)” value in assay [2] (setting [7]) worked out at 7.6 µM (≈ 16 µg/mL); in assay [2] (setting [9]) it was 8 μg mL^–1. In addition, the “MIC S. epidermidis (1587)” value in assay [3] (setting [7]) is on record as 30.5 µM (≈ 64.1 µg/mL); in assay [3] (setting [9]) it was 32 μg mL^–1. Also, the “MIC S. pyogenes (5448)” value turned out to be 7.6 µM (≈ 16 µg/mL) in assay [4] (setting [7]) and 8 μg mL^–1 in assay [4] (setting [9]). In addition, in assay [5], the “Result with antagonist C55-PP” value is reported as “+”. For the same molecule, the “Effect of adding C55-PP on antibiotic activity” value in assay [5] is listed as “complete loss of antibiotic activity”. Further, the “Result with antagonist Lipid II” value in assay [6] was “+”. Also, the “Effect of pre-incubation with lipid II on antibacterial activity” value in assay [6] is on record as “effectively antagonized”.
